Legend:
Settings in all cases: 72 h
Calu-3 [1] = experiment: drug sensitivity score (DSS) for viability; higher = more toxic; extreme values may be limits of the assay
U2OS [2] = experiment: as above
Caco-2 [3] = experiment: as above
HepG2 [4] = experiment: as above
Vero E6 [5] = experiment: as above
Calu-3 [6] = experiment: cell viability relative to DMSO; higher = less toxic
U2OS [7] = experiment: as above
Caco-2 [8] = experiment: as above
HepG2 [9] = experiment: as above
Vero E6 [10] = experiment: as above
Calu-3 [11] = experiment: relative viability EC50 (midpoint between 100% and the lowest measured viability); higher = less toxic
U2OS [12] = experiment: as above
Caco-2 [13] = experiment: as above
HepG2 [14] = experiment: as above
Vero E6 [15] = experiment: as above

| Compound | drug sensitivity score (Calu-3 [1]) | drug sensitivity score (U2OS [2]) | drug sensitivity score (Caco-2 [3]) | drug sensitivity score (HepG2 [4]) | drug sensitivity score (Vero E6 [5]) | cell viability (Calu-3 [6]; 1 nM) [%] | cell viability (Calu-3 [6]; 10 nM) [%] | cell viability (Calu-3 [6]; 100 nM) [%] | cell viability (Calu-3 [6]; 1000 nM) [%] | cell viability (Calu-3 [6]; 10000 nM) [%] | cell viability (U2OS [7]; 1 nM) [%] | cell viability (U2OS [7]; 10 nM) [%] | cell viability (U2OS [7]; 100 nM) [%] | cell viability (U2OS [7]; 1000 nM) [%] | cell viability (U2OS [7]; 10000 nM) [%] | cell viability (Caco-2 [8]; 1 nM) [%] | cell viability (Caco-2 [8]; 10 nM) [%] | cell viability (Caco-2 [8]; 100 nM) [%] | cell viability (Caco-2 [8]; 1000 nM) [%] | cell viability (Caco-2 [8]; 10000 nM) [%] | cell viability (HepG2 [9]; 1 nM) [%] | cell viability (HepG2 [9]; 10 nM) [%] | cell viability (HepG2 [9]; 100 nM) [%] | cell viability (HepG2 [9]; 1000 nM) [%] | cell viability (HepG2 [9]; 10000 nM) [%] | cell viability (Vero E6 [10]; 1 nM) [%] | cell viability (Vero E6 [10]; 10 nM) [%] | cell viability (Vero E6 [10]; 100 nM) [%] | cell viability (Vero E6 [10]; 1000 nM) [%] | cell viability (Vero E6 [10]; 10000 nM) [%] | relative viability EC50 (Calu-3 [11]) [µM] | relative viability EC50 (U2OS [12]) [µM] | relative viability EC50 (Caco-2 [13]) [µM] | relative viability EC50 (HepG2 [14]) [µM] | relative viability EC50 (Vero E6 [15]) [µM] |
| --- | --- | --- | --- | --- | --- | --- | --- | --- | --- | --- | --- | --- | --- | --- | --- | --- | --- | --- | --- | --- | --- | --- | --- | --- | --- | --- | --- | --- | --- | --- | --- | --- | --- | --- | --- |
| CC1(C)CC(=O)c2c(C(F)(F)F)nn(-c3ccc(C(N)=O)c(N[C@H]4CC[C@H](OC(=O)CN)CC4)c3)c2C1 [SNX-5422] | 13.1 | 21.9 | 13.5 | 28.8 | 10.6 | 85.3 | 93.9 | 80.9 | 40.5 | 38.7 | 92 | 105 | 68.9 | 3.4 | 3.4 | 90.2 | 95.8 | 85.4 | 37.3 | 35.2 | 101 | 92.9 | 15.8 | 0.9 | 1.9 | 95.6 | 94 | 97.5 | 47.3 | 25.8 | 0.161 | 0.135 | 0.189 | 0.0395 | 0.612 |
| Cn1cc(C2=C(c3cn(C4CCN(Cc5ccccn5)CC4)c4ccccc34)C(=O)NC2=O)c2ccccc21 [enzastaurin] | 0 | 0 | 0 | 0 | 0 | 109 | 97.3 | 118 | 108 | 109 | 102 | 101 | 102 | 97.4 | 101 | 98.6 | 104 | 93.2 | 98.4 | 100 | 105 | 113 | 94 | 98 | 106 | 101 | 107 | 103 | 105 | 98.9 | > 10 | > 10 | > 10 | > 10 | > 10 |
| CC[N+](C)(CC)CCOC(=O)C1c2ccccc2Oc2ccccc21 [methantheline] | 0 | 0 | 0 | 0 | 0 | 99.9 | 96.2 | 103 | 106 | 88.9 | 99.1 | 100 | 100 | 104 | 97.8 | 91.6 | 108 | 89.1 | 99 | 96.3 | 102 | 88.7 | 97.9 | 79.8 | 97.5 | 95.3 | 97 | 94.4 | 93.2 | 93.8 | > 10 | > 10 | > 10 | > 10 | > 10 |
| CN(C)C(=O)[C@H](O)[C@H](Cc1ccccc1)NC(=O)c1cc2cc(Cl)ccc2[nH]1 | 0 | 0 | 0 | 0 | 0 | 96.2 | 104 | 97 | 102 | 102 | 95.4 | 102 | 90.5 | 95.3 | 97 | 87.2 | 97 | 96.2 | 106 | 96.8 | 103 | 96 | 106 | 105 | 106 | 108 | 94.6 | 102 | 98.3 | 106 | > 10 | > 10 | > 10 | > 10 | > 10 |
| O=C(Nc1ccccc1-c1cn2c(CN3CCNCC3)csc2n1)c1cnc2ccccc2n1 [SRT1720] | 5.3 | 5.4 | 5.5 | 6.9 | 6.4 | 102 | 101 | 103 | 102 | 0.9 | 102 | 99.7 | 98.1 | 102 | 0.2 | 88.6 | 93.3 | 99.7 | 98.4 | 5.4 | 94 | 94.4 | 102 | 91.6 | 0.3 | 98.2 | 97.7 | 97.7 | 94.3 | 0.1 | 3.3 | 3.3 | 3.05 | 2.47 | 2.72 |
| CNC(=S)C1(c2ccccn2)CCCS1 (stereo not given) [picartamide] | 0 | 0 | 0 | 0 | 0 | 96.9 | 93 | 102 | 106 | 106 | 99.5 | 104 | 96.2 | 99.4 | 106 | 94.1 | 96.8 | 92.9 | 95.1 | 99.4 | 98.3 | 93.6 | 103 | 99.6 | 97.8 | 103 | 96.5 | 106 | 101 | 93.7 | > 10 | > 10 | > 10 | > 10 | > 10 |
| O=c1[nH]c(=O)n([C@H]2C[C@H](O)[C@@H](CO)O2)cc1F [floxuridine] | 0.5 | 0.3 | 24.9 | 19 | 11.8 | 101 | 85.1 | 93.6 | 88.9 | 89 | 95.3 | 99.9 | 101 | 105 | 82.6 | 88.4 | 62 | 42 | 29.9 | 44.6 | 109 | 66.2 | 59.4 | 50 | 43.1 | 97.2 | 91.8 | 74.6 | 53.6 | 42.2 | > 10 | > 10 | 0.0088 | 0.0144 | 0.134 |
| CCOC(=O)[C@@H](N)Cc1ccc(O)c(O)c1 [etilevodopa] | 0.3 | 0 | 2.8 | 0 | 0 | 103 | 95.6 | 92.2 | 88.8 | 94 | 92.6 | 95.7 | 98.3 | 96.3 | 99.3 | 94 | 107 | 84.2 | 85.8 | 92.8 | 86.2 | 96 | 88.1 | 99.1 | 92.5 | 101 | 89.7 | 89.7 | 98.9 | 111 | > 10 | > 10 | > 10 | > 10 | > 10 |
| C[C@H](O)[C@H](O)[C@H]1CNc2nc(N)[nH]c(=O)c2N1 [sapropterin] | 0 | 0 | 0 | 0.1 | 0 | 94.9 | 97 | 98.6 | 106 | 99.4 | 99.9 | 95.4 | 101 | 91.3 | 99.9 | 109 | 114 | 90.3 | 107 | 106 | 98.6 | 87.3 | 94.2 | 102 | 86.1 | 97.1 | 102 | 99.6 | 96.9 | 92.6 | > 10 | > 10 | > 10 | > 10 | > 10 |
| CCN(CC)C(=O)c1ccc(C2=CC3(CCNCC3)Oc3cccc(O)c32)cc1 [ADL5859] | 0 | 0 | 0 | 0 | 0 | 92.9 | 96.9 | 91.8 | 105 | 105 | 95.4 | 98.2 | 100 | 103 | 104 | 93 | 99.8 | 91.9 | 97.3 | 110 | 103 | 99.5 | 104 | 100 | 101 | 94.1 | 104 | 94.9 | 98.5 | 108 | > 10 | > 10 | > 10 | > 10 | > 10 |
| COc1nc(N)nc2c1ncn2[C@@H]1O[C@H](CO)[C@@H](O)[C@@H]1O [nelarabine] | 0 | 0 | 0 | 0 | 0 | 115 | 101 | 94.8 | 92.3 | 107 | 103 | 97.5 | 98.5 | 95.6 | 102 | 97.3 | 98 | 101 | 98.6 | 104 | 105 | 104 | 105 | 95.9 | 109 | 97.4 | 97.3 | 99.5 | 97.6 | 98.5 | > 10 | > 10 | > 10 | > 10 | > 10 |
| Cc1cccc(C)c1NC(=O)CN1CCCC1=O [nefiracetam] | 0 | 0 | 0 | 0 | 0 | 104 | 104 | 97.2 | 108 | 98.7 | 96.5 | 93.3 | 102 | 97.2 | 102 | 98.3 | 91.2 | 105 | 101 | 91.2 | 102 | 104 | 96.9 | 102 | 100 | 94.5 | 106 | 92.6 | 102 | 111 | > 10 | > 10 | > 10 | > 10 | > 10 |
| N=C(N)SCCc1ccc(OCc2ccc([N+](=O)[O-])cc2)cc1 [KB-R7943] | 0 | 0 | 0 | 1.7 | 0 | 104 | 110 | 93.5 | 99.6 | 98.4 | 96.5 | 105 | 98.3 | 105 | 102 | 88.7 | 103 | 99.2 | 97.2 | 94.5 | 96.2 | 108 | 108 | 90.3 | 78.8 | 99.7 | 101 | 99.2 | 97.4 | 90.4 | > 10 | > 10 | > 10 | > 10 | > 10 |
| C[C@H]1C[C@H]2[C@@H]3CCC4=CC(=O)C=C[C@]4(C)[C@@]3(Cl)[C@@H](O)C[C@]2(C)[C@@]1(O)C(=O)CO [beclomethasone] | 0 | 0 | 0 | 0 | 0 | 102 | 97.3 | 103 | 95.3 | 91.5 | 97.5 | 92.9 | 101 | 95.8 | 94 | 108 | 88.6 | 95.2 | 98.4 | 112 | 92.7 | 110 | 96.7 | 106 | 113 | 94.4 | 90.4 | 93.5 | 99.8 | 110 | > 10 | > 10 | > 10 | > 10 | > 10 |
